Source: patent US11026943B2, “Aminoquinoline derivatives and uses thereof” (UNIVERSITY OF DELHI, priority 2012, dated 2021)
Where two headings read alike, the source gives them in different places.

Key:
[1] = system: CQ-sensitive (D6 clone) strain of P. falciparum; assay: In vitro antimalarial activity, CQ-sensitive strain; assay type: cell-based, Plasmodium falciparum; conditions: for IC50: Plasmodium falciparum; for P. falciparum (D6 Clone) S.I.: selectivity index = IC50 cytotoxicity to Vero cells / IC50 antimalarial
Description: (§1) Med. Chem. 2005, 13, 4458; Khan, I. A. Lipids 2004, 37, 169].

[2] = system: CQ-resistant (W2 clone) strain of P. falciparum; assay: In vitro antimalarial activity, CQ-resistant strain; assay type: cell-based, Plasmodium falciparum; conditions: for IC50: Plasmodium falciparum; for P. falciparum (W2 Clone) S.I.: selectivity index = IC50 cytotoxicity to Vero cells / IC50 antimalarial
Description: as §1

VERO cells = assay: In vitro cytotoxicity to mammalian cells, VERO; assay type: cell-based; conditions: Chlorocebus sabaeus, Vero; in vitro cytotoxicity to mammalian cells
Description: as §1

LLC-PK-1 cells = assay: In vitro cytotoxicity to mammalian cells, LLC-PK-1; assay type: cell-based; conditions: Sus scrofa, LLC-PK1
Description: as §1

HepG2 cells = assay: In vitro cytotoxicity to mammalian cells, HepG2; assay type: cell-based; conditions: Homo sapiens
Description: as §1

parasitemia = assay: In-vivo antimalarial activity in mice
[3] = Solubility (solvent listed in compound tables); assay type: physicochemical
[4] = CQ-sensitive D6 clone, read-out: P. falciparum (D6 Clone) IC50
[5] = CQ-resistant W2 clone, read-out: P. falciparum (W2 Clone) IC50
[6] = mice, PO, 100 mg/kg × 3 days post-infection
[7] = solvents listed for the compound

IC50 [1, 4] [µM] | IC50 [2, 5] [µM] | SOLUBILITY ([3]; solvent named, Table 3) | Structure (SMILES) | P. falciparum (D6 Clone) S.I. [1] | P. falciparum (W2 Clone) S.I. [2] | IC50 (VERO cells) [µM] | IC50 (LLC-PK-1 cells) [µM] | IC50 (HepG2 cells) [µM] | also measured
0.196 | 0.664 |  | Cc1cc(Cl)nc(NCCCCNc2ccnc3cc(Cl)ccc23)n1 [11c] | (>306) | (>90) | > 60 | > 60 | 39.8 | 
0.151 | 0.69 |  | Cc1cc(NCCCCNc2ccnc3cc(Cl)ccc23)nc(Cl)n1 [10c] | (>398) | (>87) | > 60 | > 60 | > 60 | 
0.27 | 1.24 |  | Cc1cc(Cl)nc(NCCCNc2ccnc3cc(Cl)ccc23)n1 [11b] | (>222) | (>48) | > 60 | > 60 | > 60 | 
0.35 | 0.74 |  | Cc1cc(NCCCNc2ccnc3cc(Cl)ccc23)nc(Cl)n1 [10b] | (>170) | (>80) | > 60 | > 60 | > 60 | 
0.165 | 0.568 |  | Cc1cc(Cl)nc(NCCCCCCNc2ccnc3cc(Cl)ccc23)n1 [11d] | 336.9 | 97.8 | 55.6 | 23.4 | 8.1 | 
0.026 | 0.211 |  | Cc1cc(NCCCNc2ccnc3cc(Cl)ccc23)nc(N2CCCCC2)n1 [12b, N-(7-Chloro-quinolin-4-yl)-N′-(6-methyl-2-piperidin-1-yl-pyrimidin-4-yl)-propane-1,3-diamine] | (>2300) | (>284) | > 60 | > 60 | > 60 | 
0.469 | 0.544 |  | Cc1cc(NCCCCCCNc2ccnc3cc(Cl)ccc23)nc(Cl)n1 [10d] | 73.7 | 27.2 | 34.6 | 14.8 | 9.3 | 
0.27 | 0.91 |  | Cc1cc(Cl)nc(NCCNc2ccnc3cc(Cl)ccc23)n1 [11a] | 159.2 | 47.2 | 43 | 41.6 | 43 | 
0.21 | 0.34 |  | Cc1cc(NCCNc2ccnc3cc(Cl)ccc23)nc(Cl)n1 [10a] | (>285) | (>176) | > 60 | > 60 | > 60 | 
 |  | DMSO | Cc1cc(Cl)nc(NCCCCCCNc2ccnc3cc(Cl)ccc23)n1 [SM 504B] |  |  |  |  |  | 
 |  | DMSO | Clc1ccc2c(NCCNc3ccnc(Cl)n3)ccnc2c1 [SM 728A] |  |  |  |  |  | 
 |  | DMSO | Clc1ccc2c(NCCNc3nccc(Cl)n3)ccnc2c1 [SM 728B] |  |  |  |  |  | 

More lines, now with the values behind:

Structure (SMILES) | IC50 [1, 4] [µM] | IC50 [2, 5] [µM] | SOLUBILITY ([3]; solvent named, Table 3) | P. falciparum (D6 Clone) S.I. [1] | P. falciparum (W2 Clone) S.I. [2] | IC50 (VERO cells) [µM] | IC50 (LLC-PK-1 cells) [µM] | IC50 (HepG2 cells) [µM] | also measured
C[C@@H]1CC[C@H]2[C@@H](C)C(=O)O[C@@H]3O[C@@]4(C)CC[C@@H]1[C@]32OO4 [Artemisinine, reference compound] | 0.012 | 0.012 |  | 5000 | 5000 |  |  |  | 
CCN(CC)CCCC(C)Nc1ccnc2cc(Cl)ccc12 (centres unmarked) [Chloroquine, chloroquine, reference compound] |  |  |  | 1250 | 140 |  |  |  | IC50 ([1]; D6, read-out: P. falciparum (D6 Clone) IC50 (μM)): 0.048 µM; IC50 ([2]; W2, read-out: P. falciparum (W2 Clone) IC50 (μM)): 0.43 µM; parasitemia suppression (parasitemia; day 5, 100 mg/kg for 3 days post infection, standard drug): 100%; Cure (number of mice without parasitemia till day 28 post-infection) (parasitemia; [6]): 0/5; MST (mean survival time) (parasitemia; [6]): 28 days; % Parasitemia suppression Day 5 (parasitemia; mice, PO, 100 mg/kg × 3 days post-infection, day 5): 100.00%; % Parasitemia suppression Day 7 (parasitemia; mice, PO, 100 mg/kg × 3 days post-infection, day 7): 100.00%; Survival (animals that survived day 28/total animals in group) (parasitemia; mice, PO, 100 mg/kg × 3 days post-infection, day 28): 5/5; Day of Death (parasitemia; mice, PO, 100 mg/kg × 3 days post-infection, per animal): 28/28/28/28/28
COc1cccc2c1C(=O)c1c(O)c3c(c(O)c1C2=O)C[C@@](O)(C(=O)CO)C[C@@H]3O[C@H]1C[C@H](N)[C@H](O)[C@H](C)O1 [Doxorubicin] |  |  |  |  |  | 8.2 | 1 | < 1 | 
Cc1cc(NCCCNc2ccnc3cc(Cl)ccc23)nc(NCCCCCO)n1 [MT1-148] |  |  |  |  |  |  |  |  | SOLUBILITY [3, 7]: MeOH, DMSO
OCCCCNc1nc(NCCNc2ccnc3cc(Cl)ccc23)nc(N2CCCCC2)n1 [SM 373] |  |  | DMSO |  |  |  |  |  | 
COc1ccc(Nc2nc(NCCCNc3ccnc4cc(Cl)ccc34)nc(N3CCOCC3)n2)cc1 [SM 337] |  |  | DMSO |  |  |  |  |  | 
Cc1cc(NCCCNc2ccnc3cc(Cl)ccc23)nc(N2CCOCC2)n1 [SM 493] |  |  | DMSO |  |  |  |  |  | 
OCCCCNc1nc(NCCCNc2ccnc3cc(Cl)ccc23)nc(N2CCOCC2)n1 [SM 361] |  |  | DMSO |  |  |  |  |  | 
OCCCNc1nccc(NCCCNc2ccnc3cc(Cl)ccc23)n1 [MT1-121] |  |  |  |  |  |  |  |  | SOLUBILITY [3, 7]: MeOH, DMSO
Clc1ccc2c(NCCNc3nc(Nc4ccccc4)nc(Nc4ccccc4)n3)ccnc2c1 [SM 129] |  |  | DMSO |  |  |  |  |  | 
COc1ccc(Nc2ccnc(NCCCCNc3ccnc4cc(Cl)ccc34)n2)cc1 [DKG827] |  |  |  |  |  |  |  |  | SOLUBILITY ([3]; solvent named, Table 4): DMSO
Cc1cc(NCCNc2ccnc3cc(Cl)ccc23)nc(N2CCOCC2)n1 [SM 489] |  |  | DMSO |  |  |  |  |  | 
OCCNc1nccc(NCCCNc2ccnc3cc(Cl)ccc23)n1 [MT1-127] |  |  |  |  |  |  |  |  | SOLUBILITY [3, 7]: MeOH, DMSO
COc1ccc(Nc2ccnc(N3CCN(c4ccnc5cc(Cl)ccc45)CC3)n2)cc1 [ATH 220] |  |  | DMSO |  |  |  |  |  | 
